Source: US11938121B2, “Treatment of infections and biofilm formation using a cellulose synthase inhibitor” (Purdue Research Foundation, priority 2020, dated 2024)

Columns and labels:
[1] = test system: Arabidopsis Col-0; experiment: Arabidopsis Col-0 root growth and root swelling assay; type: in vivo, Arabidopsis thaliana; details: same dosage as ES20
Experimental: During the primary screening, we sowed Col-0 seeds on solid growth medium supplemented with 0.1% DMSO or 3 mg/L of different compounds with molar concentrations ranging from 5-10 μM. After 7 days of growth, we imaged the seedlings and evaluated the inhibitory effect of each chemical. Because disrupting cellulose biosynthesis by treating plants with a cellulose biosynthesis inhibitor or introducing mutations in the cellulose biosynthesis pathway often leads to root growth inhibition, root swelling, as well as ectopic lignin accumulation (Arioli et al., Science 1998, 279, 717-720; Huang et al., 2020), we first evaluated the ability of the compounds to inhibit root growth and cause root swelling. […] We grew wildtype seedlings on growth medium supplemented with DMSO (0.1%) or different concentrations of ES20 analogs for 7 days and quantified the crystalline cellulose content in root cell wall. […]
To test the inhibitory effects of different chemicals on plant growth, wild-type Arabidopsis Col-0 plants were used. […] To quantify the inhibitory effects of different ES20 active analogs on the root growth of Arabidopsis wildtype, EMS mutants, and transgenic plants expressing mutated AtCESA6 in prc1-1 background, sterilized Col-0, mutants, and transgenic plants seeds were sown on gridded Petri plates containing ½-strength MS medium supplemented with different concentrations of ES20 analogs. […]

[2] = test system: AtCESA6 carrying missense mutations in prc1-1; experiment: Root growth of transgenic plants expressing mutated AtCESA6 in prc1-1; type: in vivo, Arabidopsis thaliana; details: D562N, D564N, D785N, Q823E, R826A, W827A in prc1-1
Source text: We then examined whether transgenic plants expressing AtCESA6 with predicted missense mutations at the catalytic site in prc1-1 background would have altered sensitivity to active ES20 analogs. […] However, the responses of two transgenic lines expressing AtCESA6 carrying missense mutations outside of the catalytic site (L365F and D395N) to nine active ES20 analogs were similar to those of wild-type plants (FIG. 2B).
To test the inhibitory effects of different chemicals on plant growth, wild-type Arabidopsis Col-0 plants were used. The seeds of plants used for growth assays or live cell imaging were sequentially sterilized with 50% bleach and 75% ethanol. […] To quantify the inhibitory effects of different ES20 active analogs on the root growth of Arabidopsis wildtype, EMS mutants, and transgenic plants expressing mutated AtCESA6 in prc1-1 background, sterilized Col-0, mutants, and transgenic plants seeds were sown on gridded Petri plates containing ½-strength MS medium supplemented with different concentrations of ES20 analogs. […] The plates were scanned using an Epson Perfection V550 scanner after 7 days of growth, and the root lengths of plants were quantified using ImageJ software. […] The Petri dishes were scanned, and hypocotyl length was measured using ImageJ. […]

[3] = test system: maize (Zea mays); experiment: Maize seedling root growth; type: in vivo; details: 20 μM
Source text: ES20 has broad spectrum inhibitory effect on the growth of both dicotyledonous and monocotyledonous plants (Huang and Zhang, Plant Signal Behav. 2020, 15, 1780039). We tested whether ES20-1 has stronger inhibitory effect on the growth of monocotyledon plants than ES20. We grew rice (Oryza sativa) and maize (Zea mays) seedlings on the same concentrations of ES20 and ES20-1 and compared their effects on growth.

[4] = test system: Komagataeibacter xylinus; experiment: K. xylinus cellulose production in liquid culture; type: cell-based; details: 20 μM
Source text: We next grew K. xylinus cells in growth medium supplemented with DMSO, ES20, or ES20-1 under agitation. […] We also grew K. xylinus in liquid medium supplemented with DMSO, ES20, or ES20-1 under static cultivation conditions. Without agitation, pellicles containing cellulose often form at the air-liquid interface. […] To quantify the effects of ES20 and ES20-1 on cellulose production, we harvested the pellicles from these cultures and isolated cellulose from the pellicles.
Komagataeibacter xylinus (previously named Gluconacetobacter xylinus) ATCC strain 700178 was obtained from ATCC (Manassas, Va., USA) to evaluate cellulose production. HS (Hestrin and Schramm) medium was used for culture; HS liquid medium contains 2.0% glucose (w/v), 0.5% yeast extract (w/v), 0.5% peptone (w/v), 0.27% Na2HPO4 (w/v), and 0.15% citric acid (w/v), pH 5.0, and HS solid medium was solidified with 1.8% agar (w/v). To prepare the initial inoculation source, a single K. xylinus colony grown on HS solid medium was transferred to HS liquid medium and cultured at 26° C. for 5 days under static conditions. We used cells from the bottom of the liquid culture as the initial inoculation source to avoid biofilm aggregates at the air-liquid interface. To test the effect of ES20 and ES20-1 on the bacteria growth, initial inoculation source was series diluted and 20 μL culture from each diluted solution was dropped on HS solid medium supplemented with DMSO (0.1%) or different concentrations of ES20 and ES20-1 and cultured at 26° C. for 6 days after the dropped culture was completely dry. To test the effects of ES20 and ES20-1 on cellulose production, the prepared inoculation source was inoculated at a dilution ratio of 1:1000 dilution in HS liquid medium supplemented with 0.1% DMSO or 20 μM of ES20 or ES20-1. Static cultivation was carried out in a 26° C. incubator, and agitated cultivation was carried out at 26° C. with shaking at 220 rpm. To isolate cellulose from pellicles, the pellicles were removed from liquid culture, washed several times with deionized water, and soaked in 0.1 M NaOH at 80° C. for 2 h. The pellicles were washed several times with deionized water to completely remove the alkali. The purified cellulose was dried at 60° C. for ˜1 day until a constant dry mass was reached.

[5] = 5 days static cultivation, vs DMSO

Cc1ccccc1C(=O)NNC(=S)NC(=O)c1ccccc1 [ES20-1]
root growth inhibition compared with ES20 [1]: more strongly inhibited root growth than ES20 | sensitivity of transgenic lines with AtCESA6 catalytic site mutations [2]: Reduced sensitivity | maize root growth inhibition ([3]; 6-day-old seedlings): could inhibit the root growth | degree of maize root growth inhibition compared with ES20 ([3]; same dosage): much stronger than that of the same dosage of ES20 | size of cellulose clusters ([4]; 5 days agitated cultivation, vs DMSO): smaller | dry mass of cellulose from pellicles ([4]; 5 days static cultivation, mean±SD, n=9): 346 ± 152 mg/L | decrease of dry mass of cellulose from pellicles [4, 5]: ~30% | pellicle thickness [4, 5]: pellicles in cultures containing DMSO are thicker
